Measurements as given in US20070202079A1, “Therapeutic compositions and methods useful in modulating protein tyrosine phosphatases” (priority 2006, published 2007).

Columns and labels:
[1] = system: IFNγ+ cells in human peripheral blood; test: ELISPOT assays of peripheral blood treated in vitro; assay type: cell-based; conditions: comparable conditions
MDA231 = MDA231 cell growth, MTT; assay type: cell-based, human; conditions: 50 μg/ml, day 6 culture
Method: (§1) For cell proliferation assays, cells were grown in 10% FCS culture medium containing various amounts of IFNs and/or sodium stibogluconate in 96 well plates and cultured at 37° C. for 3 or 6 days as indicated. The numbers of viable cells in proliferation assays were determined by MTT assays as described in Phatak et al., J. Immunol. 167, 3391 (2001).

Renca tumors = Renca tumors in Balb/c mice; assay type: in vivo; conditions: Balb/c mice, two weeks
Method: Balb/c and athymic nude Balb/c mice (10 weeks old, female, Taconic Farms, Germantown, N.Y.) were inoculated (s.c.) at the flanks with Renca cells (10^6 cells/site). Four days post-inoculation, the mice were subject to no treatment (Control) or treatment with IL-2 ([…]/daily for 5 days, i.p.), SSG (12 mg/daily, i.m. at hip regions) or the combination of the two agents for two weeks. […] The dose of SSG was similar to the effective daily dose of the drug for the treatment of murine leishmaniasis (Murray, H. W., J. D. Berman, and S. D. Wright. 1988. Immunochemotherapy for intracellular Leishmania donovani infection: gamma interferon plus pentavalent antimony. J Infect Dis 157:973). Tumor volume was measured during the study period and calculated using the formula for a prolate spheroid (V=4/3×a2b) (Lindner, D. J., E. C. Borden, and D. V. Kalvakolanu. 1997. Synergistic antitumor effects of a combination of interferons and retinoic acid on human tumor cells in vitro and in vivo. Clin Cancer Res 3:931). Student's t test was used for assessing the significance of tumor volume differences among differential treatment groups. Mouse viability (daily) and body weights (weekly) were also recorded during the study period. At the end of the study, Renca tumors and major internal organs (heart, kidney, liver, lung and spleen) were harvested for histology and immunohistochemistry analysis.

[2] = system: Jak2/Stat5 tyrosine phosphorylation in Baf3 cells; test: cellular protein tyrosine phosphorylation in Baf3 cells, Western blotting; assay type: cell-based, murine
Method: For induction of cellular protein phosphorylation by sodium stibogluconate or pervanadate, Baf3 cells were incubated in 0.1% FCS-RPMI 1640 medium at 37° C. for 16 hours. The cells were then washed twice in RPMI 1640 medium and incubated with sodium stibogluconate or pervanandate (0.1 mM) for various times prior to termination by lysing cells in cold lysis buffer (50 mM Tris, pH 7.4; 150 mM NaCl; 0.2 mM Na3VO4; 20 mm NaF; 1% Nonidet P-40; 2 mM PMSF; 20 μg/ml of Aprotinin and 1 mM of sodium molybdic acid). To determine the effect of sodium stibogluconate or potassium antimonyl tartrate on IL-3-induced Jak/Stat phosphorylation, Baf3 cells were deprived of the growth factor for 16 hours in 0.1% FCS RPMI 1640 medium and then incubated with or without sodium stibogluconate or potassium antimonyl tartrate for 10 minutes. IL-3 was next added to the cell suspension and incubated for various times. The Cells were then harvested and lysed in cold lysis buffer at 4° C. for 45 minutes. Total cell lysates (TCL) were separated in SDS-PAGE gels, blotted onto nitrocellulose membrane (Schleicher & Schuell), probed with specific antibodies and detected using an enhanced chemiluminescence kit (ECL, Amersham, Arlington Heights, Ill.).

[3] = system: tumor-infiltrating and spleen immune cells (F4/80+, CD4+, CD8+); test: immunohistochemistry of Renca tumors and spleen; assay type: in vivo, Balb/c mice; conditions: mouse, in vivo
Method: Major internal organs and Renca tumors harvested from mice were fixed in 10% formalin or snap frozen in liquid nitrogen. H & E-stained tissue sections of the fixed samples were prepared and evaluated by microscopy as described previously (Yi, T., M. K. Pathak, D. J. Lindner, M. E. Ketterer, C. Farver, and E. C. Borden. 2002. Anticancer activity of sodium stibogluconate in synergy with IFNs. J Immunol 169:5978). Preparation of frozen tissue sections and immunohistochemistry were performed following established procedures (Joliat, M. J., P. A. Lang, B. L. Lyons, L. Burzenski, M. A. Lynes, T. Yi, J. P. Sundberg, and L. D. Shultz. 2002. Absence of CD5 dramatically reduces progression of pulmonary inflammatory lesions in SHP-1 protein-tyrosine phosphatase-deficient ‘viable motheaten’ mice. J Autoimmun 18:105). The antibodies used for immunohistochemistry were anti-CD4 (rat mAb, clone GK1.5, BD Biosciences, Franklin Lakes, N.J.), anti-CD8 (rat mAb, clone 53-6.7.5, BD Biosciences, Franklin Lakes, N.J.), anti-F4/80 (rat mAb, clone A3-1, Serotec, Oxford, UK) and anti-Asialo GM1 (rabbit polyclonal, Cedarlane, Hornby, Canada). […] Tissue sections of 2 mice/group were evaluated. The number of immune cells was semi-quantified based on the following scheme: […], 0-1 positive cells/40×field; +, 2-5 positive cells/40×field; ++, 6-10 positive cells/40×field, etc.

[4] = standard dosage 10-20 mg/kg/day; cited from earlier work
U251 = U251 cell growth, MTT; assay type: cell-based, human; conditions: 100 μg/ml, day 6
Method: NIH3T3 (Yi, et al., Blood 85, 87 (1995)), WM9 (Forsberg, et al., Proc. Nat. Acad Sci. USA 90, 393 (1993)), DU145 (Mickey, et al., Cancer Res. 37, 4049 (1977)), LoVo (Drewinko, et al., Cancer Res. 36, 467 (1976)), HEY (Buick, et al., Cancer Res. 45, 3668 (1985)), U251 (Yoshida, et al., Cancer 50, 410 (1982)), A549 (Giard, et al., J. Natl. Cancer Inst. 51, 1417 (1973)) and SK-N-SH (Helson, et al., Cancer Res. 35, 2594 (1975)) cell lines have been described and were cultured in RPMI 1640 supplemented with 10% fetal calf serum (FCS). For measurement of sodium stibogluconate effects on cell growth in vitro, cells were cultured in the absence (−) or presence (+) of various amounts of sodium stibogluconate for 6 days with viable cells quantified by MTT assays (Mosmann, J. Immunol. Methods 65, 55 (1983)). Percentages of growth inhibition by sodium stibogluconate were calculated (.+−.x%).

WiT49-N1 = WiT49-N1 cell growth, MTT; assay type: cell-based, human; conditions: day 6
Method: as §1

C42 = C42 cell growth, MTT; assay type: cell-based, human
Method: as §1

With `O.O.O.O.O.O.O.O.O.O=C([O-])[C@@H]1[O][Sb]2([O-])([O][Sb]34([OH])[O][C@H]([C@H](O)CO)[C@H]([O]3)[C@H](C(=O)[O-])[O]4)[O][C@H]([C@H](O)CO)[C@@H]1[O]2.[Na+].[Na+].[Na+]` [sodium stibogluconate] the “cells expressing TH2 cytokine IL-5” value [1] was “not induced”, the “MDA231 cells, single agent” value (MDA231) was “killed all cells” and the tolerance of treatment (Renca tumors) was “tolerated well”. The “induction of cellular protein tyrosine phosphorylation” value ([2]; Baf3 deprived of IL-3, compared with pervanadate 0.1 mM) was “modest and transient”, the “phosphotyrosine levels of Jak2 and Stat5 versus cells without drug” value ([2]; IL-3 stimulated, densitometry) was “about twice” and the “Jak2/Stat5 tyrosine phosphorylation by drug alone” value ([2]; no IL-3, 16 hours at 37 °C) was “failed to induce Jak2/Stat5 tyrosine phosphorylation”. The “numbers of tumor-infiltrating T cells or NK cells” value [3] was “little effect”, the serum levels [4] was ≥ 10000 ng/mL and the “cell killing of U251” value (U251) was “near-complete cell killing”. The “WiT49-N1 growth inhibition activity with IFN-alpha” value (WiT49-N1) was “not enhanced by IFN-alpha” and the “sensitivity of C42 cells” value (C42) was “highly resistant”.
